Test results published in the supplement of paper PMC10627819.

Tests used:
B. subtilis 168 [1] = assay: fitness (endpoint OD595 vs no drug) (fraction); higher = more growth
Method in brief: (§1)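 Background-subtracted growth curves were the basis for fitness, taken as the optical density at entry into stationary phase over the robust mean of no-drug control wells. A cap of 1 was applied. The curves came from OD595 readings every 30 min for 14 h at 37 °C, in 384-well plates seeded at OD595 0.01 with 30 µl, or 55 µl for S. pneumoniae.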

S. aureus DSM 20231 [2] = assay: as above
Method in brief: as §1

S. pneumoniae D39V [3] = assay: as above
Method in brief: as §1

B. subtilis 168 [4] = assay: Bliss interaction score (quartile over a dose matrix) (fitness difference); higher = more antagonism (negative = synergy)
Method in brief: (§2)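 Fitness was defined as normalised growth: OD595 at the start of stationary phase divided by the plate's robust no-drug mean and capped at 1. Single-drug fitness was inferred from combination measurements. The Bliss score is observed fitness minus the product of the single-drug values, summarised by quartiles across technical, biological and donor/recipient replicates.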

S. aureus Newman = assay: as above
Method in brief: as §2

S. aureus DSM 20231 [5] = assay: as above
Method in brief: as §2

S. pneumoniae D39V [6] = assay: as above
Method in brief: as §2
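For Bliss interaction score (quartile over a dose matrix) in this document: first quartile when negative (synergy) and third quartile when positive (antagonism).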

O=C(O[C@@H]1Cc2c(O)cc(O)cc2O[C@@H]1c1cc(O)c(O)c(O)c1)c1cc(O)c(O)c(O)c1 [EGCG] + CCC[C@@H]1C[C@@H](C(=O)N[C@@H]([C@H]2O[C@H](SC)[C@H](O)[C@@H](O)[C@H]2O)[C@@H](C)O)N(C)C1 [Lincomycin]
fitness
Details	partner 0.1 µg/mL	partner 0.2 µg/mL	partner 0.215 µg/mL	partner 0.4 µg/mL	partner 0.43 µg/mL	partner 0.8 µg/mL	partner 0.86 µg/mL
B. subtilis 168 [1], first compound 6.25 µg/mL	0.889	0.88	–	0.908	–	–	–
S. aureus DSM 20231 [2], first compound 12.5 µg/mL	0.593	0.505	–	0.354	–	–	–
S. aureus DSM 20231 [2], first compound 25 µg/mL	0.592	0.553	–	0.306	–	–	–
S. aureus DSM 20231 [2], first compound 50 µg/mL	0.549	–	–	0.142	–	–	–
S. pneumoniae D39V [3], first compound 12.5 µg/mL	–	0.429	0.739	0.273	0.565	0.0193	0.389
S. pneumoniae D39V [3], first compound 25 µg/mL	–	0.483	0.713	0.439	0.668	0.0594	0.456
S. pneumoniae D39V [3], first compound 50 µg/mL	–	0.328	0.565	0.182	0.671	–	–

fitness, B. subtilis 168 [1], one replicate
Details	first compound 6.25 µg/mL	first compound 12.5 µg/mL	first compound 25 µg/mL
partner 0.8 µg/mL	0.908	0.761	0.709
partner 1.6 µg/mL	0.864	0.734	0.606

Details	Bliss interaction score
B. subtilis 168 [4]	0.102
S. aureus DSM 20231 [5]	-0.119
S. aureus Newman	-0.056
S. pneumoniae D39V [6]	-0.112

CCC[C@@H]1C[C@@H](C(=O)N[C@@H]([C@H]2O[C@H](SC)[C@H](O)[C@@H](O)[C@H]2O)[C@H](C)Cl)N(C)C1 [Clindamycin] + CCC[C@@H]1C[C@@H](C(=O)N[C@@H]([C@H]2O[C@H](SC)[C@H](O)[C@@H](O)[C@H]2O)[C@@H](C)O)N(C)C1 [Lincomycin]
fitness, B. subtilis 168 [1], one replicate
Details	first compound 0.0039 µg/mL	first compound 0.0078 µg/mL	first compound 0.0156 µg/mL
partner 0.4 µg/mL	0.964	0.838	0.828
partner 0.8 µg/mL	0.965	0.803	0.83
partner 1.6 µg/mL	0.94	0.817	0.81

Details	fitness
B. subtilis 168 [1], first compound 0.0625 µg/mL, partner 0.1 µg/mL	0.659
B. subtilis 168 [1], first compound 0.0625 µg/mL, partner 0.2 µg/mL	0.613
B. subtilis 168 [1], first compound 0.0625 µg/mL, partner 0.4 µg/mL	0.675
B. subtilis 168 [1], first compound 0.125 µg/mL, partner 0.1 µg/mL	0.454
B. subtilis 168 [1], first compound 0.125 µg/mL, partner 0.2 µg/mL	0.406
B. subtilis 168 [1], first compound 0.25 µg/mL, partner 0.1 µg/mL	0.363
B. subtilis 168 [1], first compound 0.25 µg/mL, partner 0.2 µg/mL	0.355
B. subtilis 168 [1], first compound 0.25 µg/mL, partner 0.4 µg/mL	0.356
S. aureus DSM 20231 [2], first compound 0.0312 µg/mL, partner 0.2 µg/mL	0.265
S. aureus DSM 20231 [2], first compound 0.0312 µg/mL, partner 0.4 µg/mL	0.137
S. aureus DSM 20231 [2], first compound 0.0625 µg/mL, partner 0.1 µg/mL	0.16
S. aureus DSM 20231 [2], first compound 0.0625 µg/mL, partner 0.2 µg/mL	0.112
S. aureus DSM 20231 [2], first compound 0.0625 µg/mL, partner 0.4 µg/mL	0.083
S. aureus DSM 20231 [2], first compound 0.125 µg/mL, partner 0.1 µg/mL	0.0376
S. aureus DSM 20231 [2], first compound 0.125 µg/mL, partner 0.2 µg/mL	0.0455
S. aureus DSM 20231 [2], first compound 0.125 µg/mL, partner 0.4 µg/mL	0.0541
S. pneumoniae D39V [3], first compound 0.0125 µg/mL, partner 0.2 µg/mL	0.496
S. pneumoniae D39V [3], first compound 0.0125 µg/mL, partner 0.4 µg/mL	0.351
S. pneumoniae D39V [3], first compound 0.0125 µg/mL, partner 0.8 µg/mL	0.0708
S. pneumoniae D39V [3], first compound 0.015 µg/mL, partner 0.215 µg/mL	0.831
S. pneumoniae D39V [3], first compound 0.015 µg/mL, partner 0.43 µg/mL	0.741
S. pneumoniae D39V [3], first compound 0.015 µg/mL, partner 0.86 µg/mL	0.482
S. pneumoniae D39V [3], first compound 0.025 µg/mL, partner 0.2 µg/mL	0.356
S. pneumoniae D39V [3], first compound 0.025 µg/mL, partner 0.4 µg/mL	0.243
S. pneumoniae D39V [3], first compound 0.025 µg/mL, partner 0.8 µg/mL	0.0559
S. pneumoniae D39V [3], first compound 0.03 µg/mL, partner 0.215 µg/mL	0.772
S. pneumoniae D39V [3], first compound 0.03 µg/mL, partner 0.43 µg/mL	0.739
S. pneumoniae D39V [3], first compound 0.03 µg/mL, partner 0.86 µg/mL	0.394
S. pneumoniae D39V [3], first compound 0.05 µg/mL, partner 0.2 µg/mL	0.0687
S. pneumoniae D39V [3], first compound 0.05 µg/mL, partner 0.4 µg/mL	0.0516
S. pneumoniae D39V [3], first compound 0.05 µg/mL, partner 0.8 µg/mL	0.0164
S. pneumoniae D39V [3], first compound 0.06 µg/mL, partner 0.215 µg/mL	0.632
S. pneumoniae D39V [3], first compound 0.06 µg/mL, partner 0.43 µg/mL	0.524
S. pneumoniae D39V [3], first compound 0.06 µg/mL, partner 0.86 µg/mL	0.152

Details	Bliss interaction score
B. subtilis 168 [4]	0.193
S. aureus DSM 20231 [5]	-0.0523
S. aureus Newman	-0.22
S. pneumoniae D39V [6]	0.0748
